Values of other authors as cited in patent publication US20080319079A1 (priority 2006, published 2008).

Experiments:
[1] = test system: patients with reversible obstructive respiratory diseases; conditions: for duration of action (bronchodilation): patients with asthma and related respiratory illnesses, inhalation
[2] = repeated doses administered frequently up to a maximum dose of 80 μg per day

Row | Compound | onset of action ([1]; after inhalation) | duration of action (bronchodilation) [1] | side effects [2]
1 | OCc1cc(C(O)CNCCCCCCOCCCCc2ccccc2)ccc1O (centres unmarked) [Salmeterol] | approximately thirty | twelve | 
2 | COc1ccc(CC(C)NCC(O)c2ccc(O)c(NC=O)c2)cc1 (centres unmarked) [formoterol, N-[2-hydroxy-5-(1-hydroxy-2-((2-(4-methoxyphenyl)-1-methylethyl)-amino)-ethyl)phenyl]formamide] |  |  | no more side effects than short acting bronchodilators
3 | CC(C)(C)NCC(O)c1ccc(O)c(CO)c1 (centres unmarked) [salbutamol] |  | four to six | 
4 | CC(C)(C)NCC(O)c1cc(O)cc(O)c1 (centres unmarked) [terbutaline] |  | four to six | 
